Key:
[1] = tested on: circAβ-a; test: qRT-PCR of circAβ-a under ASO treatment; type: cell-based, human; details: cells overexpressing circAβ-a, vs Scr. ASO
Text: (§1) FIG. 7A. Schematic diagram of the designing of anti-circAβ-a-ASO. FIG. 7B. β-amyloid circular ribonucleic acid qRT-PCR results under ASO treatment; BE-Aβ represents the plasmid overexpressing circAβ-a using pCircRNA-BE vector; DMo-Aβ represents the overexpression using pCircRNA-DMo vector circAβ-a plasmid; Scr. ASO means negative control experiment ASO. FIG. 7C. qRT-PCR results of APP mRNA under ASO treatment.
(§2) In this example, the specific antisense oligonucleotide (ASO) against β-amyloid cyclic ribonucleic acid (circAβ) is used to inhibit and degrade circAβ to prevent and treat Alzheimer's disease. As shown in FIGS. 7A-7C, the level of the circular RNA in the cell is reduced by antisense oligonucleotides (anti-circAβ-a-ASO) against β-amyloid cyclic ribonucleic acid-a (circAβ-a). The APP mRNA was not affected (FIG. 7C). As shown in the figure, antisense oligonucleotides containing SEQ ID No. 41-57 anti-amyloid cyclic ribonucleic acid (circAβ). Antisense oligonucleotides recognize β-amyloid circular ribonucleic acid through base complementary pairing. Antisense oligonucleotides that bind target RNA can degrade target RNA by activating RNase H enzyme activity (FIGS. 7A-7C). Antisense oligonucleotides can also regulate (such as inhibit) protein translation by binding to target RNA.

[2] = tested on: APP mRNA; test: qRT-PCR of APP mRNA under ASO treatment; type: cell-based, human
Text: as §1, §2

## AAGCAGCTCATCTCCACCACAC (listed as DNA, chemistry not given here) [anti-circAβ-a-ASO, antisense oligonucleotide against circAβ-a]
[1]
  level of circAβ-a in cells: reduced
[2]
  APP mRNA level: not affected

From patent publication US20220275037A1, “ß-AMYLOID CYCLIC RIBONUCLEIC ACID, POLYPEPTIDE, AND APPLICATION THEREOF” (priority 2019, published 2022)
